Data: ChEMBL document CHEMBL4145522, “Design, synthesis and biological evaluation of non-secosteriodal vitamin D receptor ligand bearing double side chain for the treatment of chronic pancreatitis” (Eur J Med Chem, 2018)
Activity calls are given as the source filed them. The rule behind the calls is not given here.

Assays:
Rattus norvegicus [1] = organism: Rattus norvegicus; test: (§1) Antifibrotic activity against TGFbeta1 stimulated rat LTC-14 cells assessed as inhibition of collagen 1 synthesis at 0.5 uM after 24 hrs by ELISA relative to calcipotriol; type: functional
Rattus norvegicus [2] = organism: Rattus norvegicus; test: Antifibrotic activity against TGFbeta1 stimulated rat LTC-14 cells assessed as inhibition of collagen 1 level at 500 nM after 24 hrs by Western blot; type: functional
Rattus norvegicus [3] = organism: Rattus norvegicus; test: Antifibrotic activity against TGFbeta1 stimulated rat LTC-14 cells assessed as inhibition of alpha-SMA mRNA expression at 500 nM after 24 hrs by RT-qPCR analysis; type: functional
Mus musculus [4] = test: Toxicity in caerulein induced chronic pancreatic C57BL/6J mouse model assessed as serum calcium levels at 0.5 mg/kg, po administered via gavage treated for 5 times per week measured after 3 days (reference value: 0.25 umol/ml); type: organism-based; details: in vivo, 72 h
[5] = target: T1, Vitamin D3 receptor (Homo sapiens) (UniProt P11473); test: Transactivation of VDR (unknown origin) expressed in HEK293 cells harboring pENTER-CMV-human RXRalpha at 10^-8M to 10^-6M after 24 hrs by luciferase reporter gene assay; type: cell-based
T1 sequence (whole entry): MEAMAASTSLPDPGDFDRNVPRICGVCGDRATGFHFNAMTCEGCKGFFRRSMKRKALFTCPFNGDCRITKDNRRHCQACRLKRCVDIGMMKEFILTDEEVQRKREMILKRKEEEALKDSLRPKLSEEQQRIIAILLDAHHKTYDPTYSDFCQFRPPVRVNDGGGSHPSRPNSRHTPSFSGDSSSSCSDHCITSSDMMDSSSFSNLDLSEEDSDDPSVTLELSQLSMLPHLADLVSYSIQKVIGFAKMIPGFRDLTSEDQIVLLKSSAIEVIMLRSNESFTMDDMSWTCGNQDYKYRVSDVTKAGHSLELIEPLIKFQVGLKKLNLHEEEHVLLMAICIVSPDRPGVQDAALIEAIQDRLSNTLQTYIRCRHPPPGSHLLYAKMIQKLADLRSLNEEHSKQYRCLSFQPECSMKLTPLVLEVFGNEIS

[6] = as §1; type: functional; details: LTC-14, 24 h
Mus musculus [7] = test: Toxicity in caerulein induced chronic pancreatic C57BL/6J mouse model assessed as reduction in body weight at 0.5 mg/kg, po administered via gavage treated for 5 times per week measured after 3 days; type: organism-based; details: in vivo, 72 h
Rattus norvegicus [8] = organism: Rattus norvegicus; test: Antifibrotic activity against TGFbeta1 stimulated rat LTC-14 cells assessed as inhibition of collagen 1 alpha 1 mRNA expression at 500 nM after 24 hrs by RT-qPCR analysis; type: functional
Rattus norvegicus [9] = organism: Rattus norvegicus; test: Antifibrotic activity against TGFbeta1 stimulated rat LTC-14 cells assessed as inhibition of alpha-SMA level at 500 nM after 24 hrs by Western blot; type: functional
[10] = Half life in C57BL/6J mouse at 10 mg/kg, iv by HPLC analysis; type: ADME, organism-based; details: in vivo
Mus musculus [11] = test: Antifibrotic activity in caerulein induced chronic pancreatic C57BL/6J mouse model assessed as inhibition of collagen deposition at 0.5 mg/kg, po administered via gavage treated for 5 times per week measured after 3 days by Masson's trichrome staining based histopathological analysis; type: functional, organism-based
[12] = MRT in C57BL/6J mouse at 20 mg/kg, po by HPLC analysis; type: ADME, organism-based; details: in vivo
[13] = Oral bioavailability in C57BL/6J mouse at 20 mg/kg by HPLC analysis; type: ADME, organism-based; details: in vivo
Mus musculus [14] = test: Toxicity in caerulein induced chronic pancreatic C57BL/6J mouse model assessed as change in serum calcium levels at 0.5 mg/kg, po administered via gavage treated for 5 times per week measured after 3 days; type: organism-based; details: in vivo, 72 h
[15] = Clearance in C57BL/6J mouse at 20 mg/kg, po by HPLC analysis; type: ADME, organism-based; details: in vivo
[16] = target: T1, Vitamin D3 receptor (Homo sapiens); test: Transactivation of VDR (unknown origin) expressed in HEK293 cells harboring pENTER-CMV-human RXRalpha after 24 hrs by luciferase reporter gene assay; type: cell-based
[17] = AUC (0 to infinity) in C57BL/6J mouse at 10 mg/kg, iv by HPLC analysis; type: ADME, organism-based; set-up: dose 10 mg/kg, time infinity, route intravenous; details: in vivo
Mus musculus [18] = test: Toxicity in caerulein induced chronic pancreatic C57BL/6J mouse model assessed as change in body weight at 0.5 mg/kg, po administered via gavage treated for 5 times per week measured after 3 days; type: organism-based; details: in vivo, 72 h
Mus musculus [19] = test: Antifibrotic activity in caerulein induced chronic pancreatic C57BL/6J mouse model assessed as inhibition of alpha-SMA expression in interstitial area of pancreas tissue at 0.5 mg/kg, po administered via gavage treated for 5 times per week measured after 3 days by immunohistochemistry analysis; type: functional, organism-based
[20] = Clearance in C57BL/6J mouse at 10 mg/kg, iv by HPLC analysis; type: ADME, organism-based; details: in vivo
[21] = MRT in C57BL/6J mouse at 10 mg/kg, iv by HPLC analysis; type: ADME, organism-based; details: in vivo
[22] = AUC (0 to infinity) in C57BL/6J mouse at 20 mg/kg, po by HPLC analysis; type: ADME, organism-based; set-up: dose 20 mg/kg, route oral, time infinity; details: in vivo
[23] = Half life in C57BL/6J mouse at 20 mg/kg, po by HPLC analysis; type: ADME, organism-based; details: in vivo
Mus musculus [24] = test: Antifibrotic activity in caerulein induced chronic pancreatic C57BL/6J mouse model assessed as inhibition of pancreas lesions at 0.5 mg/kg, po administered via gavage treated for 5 times per week measured after 3 days by hematoxylin and eosin staining based histopathological analysis; type: functional, organism-based

## CCC(CC)(c1ccc(OCC(=O)O)c(C)c1)c1ccc(OCC(O)C(C)(C)C)c(OCC(O)C(C)(C)C)c1 (stereo not drawn)
Rattus norvegicus [1]
  inhibition: inactive

## C=C1/C(=C\C=C2/CCC[C@]3(C)[C@@H]([C@H](C)/C=C/[C@@H](O)C4CC4)CC[C@@H]23)C[C@@H](O)C[C@@H]1O [CALCIPOTRIENE]
Rattus norvegicus [2]
  inhibition: Active
Rattus norvegicus [3]
  inhibition: Active
Mus musculus [4]
  Activity: 0.37 µmol/mL
[5]
  Activity: Active
[6]
  inhibition at 0.5 µM: 100%
Mus musculus [7]
  Activity: Toxic
Rattus norvegicus [8]
  inhibition: Active
Rattus norvegicus [9]
  inhibition: Active

## CCC(CC)(c1ccc(OS(=O)(=O)c2ccccc2)c(C)c1)c1ccc(OCC(O)C(C)(C)C)c(OCC(O)C(C)(C)C)c1 (stereo not drawn)
[6]
  inhibition at 0.5 µM: 23%

## CCC(CC)(c1ccc(OS(=O)(=O)c2ccc(C)cc2)c(C)c1)c1ccc(OCC(O)C(C)(C)C)c(OCC(O)C(C)(C)C)c1 (stereo not drawn)
[6]
  inhibition at 0.5 µM: 137%

## CCC(CC)(c1ccc(OCCCO)c(C)c1)c1ccc(OCC(O)C(C)(C)C)c(OCC(O)C(C)(C)C)c1 (stereo not drawn)
[10]
  half-life: 2.66 h
Mus musculus [11]
  inhibition: Active
[12]
  MRT: 6.59 h
[13]
  bioavailability: 31.6%
Rattus norvegicus [2]
  inhibition: Active
Mus musculus [14]
  Activity: Non-Toxic
Rattus norvegicus [3]
  inhibition: Active
[15]
  CL/F: 20.2 mL/min
[16]
  Activity: Dose-dependent effect
[17]
  AUC(0-inf): 32600 ng·h/mL
Mus musculus [18]
  Activity: Non-Toxic
Mus musculus [19]
  inhibition: Active
[6]
  inhibition at 0.5 µM: 172%
[20]
  clearance: 5.17 mL/min
[21]
  MRT: 4.65 h
[22]
  AUC(0-inf): 20600 ng·h/mL
[23]
  half-life: 4.12 h
Mus musculus [24]
  inhibition: Active
Rattus norvegicus [8]
  inhibition: Active
Rattus norvegicus [9]
  inhibition: Active

## CCC(CC)(c1ccc(OCCCCCC(=O)O)c(C)c1)c1ccc(OCC(O)C(C)(C)C)c(OCC(O)C(C)(C)C)c1 (stereo not drawn)
Rattus norvegicus [1]
  inhibition: inactive

## CCC(CC)(c1ccc(OCCCCCCCO)c(C)c1)c1ccc(OCC(O)C(C)(C)C)c(OCC(O)C(C)(C)C)c1 (stereo not drawn)
Rattus norvegicus [1]
  inhibition: inactive

## CCC(CC)(c1ccc(OCCCCCO)c(C)c1)c1ccc(OCC(O)C(C)(C)C)c(OCC(O)C(C)(C)C)c1 (stereo not drawn)
[6]
  inhibition at 0.5 µM: 133%

## CCC(CC)(c1ccc(OCCO)c(C)c1)c1ccc(OCC(O)C(C)(C)C)c(OCC(O)C(C)(C)C)c1 (stereo not drawn)
Rattus norvegicus [2]
  inhibition: Active
[6]
  inhibition at 0.5 µM: 128%
Rattus norvegicus [9]
  inhibition: Active

## CCC(CC)(c1ccc(OCCCCCCO)c(C)c1)c1ccc(OCC(O)C(C)(C)C)c(OCC(O)C(C)(C)C)c1 (stereo not drawn)
[6]
  inhibition at 0.5 µM: 74%

## CCC(CC)(c1ccc(OCC(O)CO)c(C)c1)c1ccc(OCC(O)C(C)(C)C)c(C)c1 (stereo not drawn) [LG-190178]
Rattus norvegicus [2]
  inhibition: Active
Rattus norvegicus [3]
  inhibition: Active
[5]
  Activity: Active
[6]
  inhibition at 0.5 µM: 97%
Rattus norvegicus [8]
  inhibition: Active
Rattus norvegicus [9]
  inhibition: Active

## CCC(CC)(c1ccc(OS(C)(=O)=O)c(C)c1)c1ccc(OCC(O)C(C)(C)C)c(OCC(O)C(C)(C)C)c1 (stereo not drawn)
[6]
  inhibition at 0.5 µM: 8%

## CCC(CC)(c1ccc(OCC(O)CO)c(C)c1)c1ccc(OCC(O)C(C)(C)C)c(OCC(O)C(C)(C)C)c1 (stereo not drawn)
[16]
  Activity: Dose-dependent effect
[6]
  inhibition at 0.5 µM: 147%

## CCC(CC)(c1ccc(OS(=O)(=O)c2ccc([N+](=O)[O-])cc2)c(C)c1)c1ccc(OCC(O)C(C)(C)C)c(OCC(O)C(C)(C)C)c1 (stereo not drawn)
[6]
  inhibition at 0.5 µM: 82%

## CCC(CC)(c1ccc(OCCCCC(=O)O)c(C)c1)c1ccc(OCC(O)C(C)(C)C)c(OCC(O)C(C)(C)C)c1 (stereo not drawn)
Rattus norvegicus [1]
  inhibition: inactive

## CCC(CC)(c1ccc(OCCCC(=O)O)c(C)c1)c1ccc(OCC(O)C(C)(C)C)c(OCC(O)C(C)(C)C)c1 (stereo not drawn)
Rattus norvegicus [1]
  inhibition: inactive

## CCC(CC)(c1ccc(OCCCCO)c(C)c1)c1ccc(OCC(O)C(C)(C)C)c(OCC(O)C(C)(C)C)c1 (stereo not drawn)
Rattus norvegicus [2]
  inhibition: Active
[16]
  Activity: Dose-dependent effect
[6]
  inhibition at 0.5 µM: 189%
Rattus norvegicus [9]
  inhibition: Active

## CCC(CC)(c1ccc(OS(=O)(=O)c2ccc(C)cc2)c(C)c1)c1ccc(OCC(=O)C(C)(C)C)c(OCC(=O)C(C)(C)C)c1
Rattus norvegicus [2]
  inhibition: Active
[6]
  inhibition at 0.5 µM: 85%
Rattus norvegicus [9]
  inhibition: Active

## CCC(CC)(c1ccc(OCCCCCCC(=O)O)c(C)c1)c1ccc(OCC(O)C(C)(C)C)c(OCC(O)C(C)(C)C)c1 (stereo not drawn)
Rattus norvegicus [1]
  inhibition: inactive
